From patent US20070135366A1, “Method for assessing cancerous state” (SUMITOMO CHEMICAL COMPANY, LIMITED., priority 2003, published 2007)

Legend:
[1] = tested on: Fibrillin2 gene expression in pancreatic cancer cell line PANC-1; test: Effect of methylation inhibitor on expression of Fibrillin2 gene (Real Time PCR of mRNA-derived DNA) in PANC-1; assay type: cell-based, human; settings: added on first and third day after seeding, cells recovered on fourth day
Description: (§1) seven kinds of human-derived pancreatic cancer cell lines (BXPc3, HPAF-II, Capan-2, MiaPaCa-2, Hs766T, PANC-1 and HPAC) and immortal (normal) pancreatic ductal epithelial cells lines (HPDE-4/E6E7 and HPDE6-E6E7c7) were cultured to 70% confluent in an exclusively used medium, and thereafter, each cell was corrected. 1 ml of an ISOGEN solution (Nippon Gene) was mixed with collected each cell (wet weight about 100 mg), this was homogenized, and 0.2 ml of chloroform was added thereto to suspend them. After suspending, the mixture was centrifuged (4° C., 15000×g, 15 minutes) to recover the supernatant. […]
(§2) A reaction solution of PCR was used which was obtained by mixing 50 ng of a cDNA as a template, each 1 μl of two kinds of 10 pmol/μl aforementioned primer solution, 4 μl of 2.5 mM dNTP, 4 μl of 5 mM dUTP, 5 μl of 10×SYBR Green PCR Buffer, 6 μl of 25 mM MgCl2 and 0.3 μl of a 5U/μl thermos table DNA polymerase (AmpliTaq Gold), 0.5 μl of AmpEraseUNG and adding sterilized ultrapure water thereto to an amount of solution of 50 μl. […] When a DNA derived from mRNA of Fibrillin2 gene and GAPDH gene was amplified, after the reaction solution was retained at 95° C. for 10 minutes, Real Time PCR was performed at the conditions under which each cycle was 30 seconds at 95° C., 30 seconds at 59° C. and 30 seconds at 72° C. to quantitate Fibrillin2 gene and GAPDH gene.

[2] = tested on: Fibrillin2 gene expression in pancreatic cancer cell line HPAC; test: Effect of methylation inhibitor on expression of Fibrillin2 gene (Real Time PCR of mRNA-derived DNA) in HPAC; assay type: cell-based, human; settings: added on first and third day after seeding, cells recovered on fourth day
Description: as §1, §2

Measured: DNA derived from a mRNA of Fibrillin2 gene (expression of Fibrillin2 gene)

Nc1ncn([C@H]2C[C@H](O)[C@@H](CO)O2)c(=O)n1 [5Aza-dC, 5-aza-2′-deoxytidine]
detected: [1]; PANC-1 cultured in the presence of 0.5 μM 5Aza-dC | [1]; PANC-1 cultured in the presence of 1 μM 5Aza-dC | [2]; HPAC cultured in the presence of 0.5 μM 5Aza-dC | [2]; HPAC cultured in the presence of 1 μM 5Aza-dC
